Assay results: US20010018051A1, “Inhibition of allograft and concordant xenograft rejection” (priority 1990, published 2001)

What was measured:
rabbit kidney xenografts = conditions: rabbit kidney into cats; cited from earlier work
hamster heart xenograft = hamster heart xenograft survival in rats; format: in vivo, rat; conditions: hamster heart in DA rats; i.m. on alternate days from time of transplantation (cyclosporin A 20 mg/kg, cobra venom factor 0.4 mg/kg)
Source text: All other cardiac vessels were ligated.
Injections were given on alternate days thereafter.

[1] = format: in vivo; conditions: doses of 2 mg/kg
Source text: (§1) The minimum dosage of cobra venom factor is species dependent and can readily be determined by the CH50 assay. […] Effective and non-toxic dosages of other complement inhibitors can also readily be determined by those skilled in the art, for example, using the CH50 assay.

complement activity = assay: onset and duration of cobra venom factor activity after intramuscular administration; format: in vivo
Protocol: as §1
Cobra venom factor takes about 6 hours for its initial activity to take effect after intramuscular administration. Once the initial activity is observed, it can last for more than 1 day, for example 2 days, and so daily administration of cobra venom factor may not be necessary. In fact, it is preferred to administer cobra venom factor on alternate days, in which case the preferred daily dosages given above will be doubled on the day of administration.

For `O=C(O)c1cc(=O)c2c(OCC(O)COc3cccc4oc(C(=O)O)cc(=O)c34)cccc2o1` [sodium chromoglycate], the “prevention of hyperacute rejection” value (rabbit kidney xenografts) is listed as “not prevented”.

With cobra venom factor the “median graft survival rate” value (hamster heart xenograft) was 6 days, the toxicity [1] was “do not appear to be toxic” and the “duration of activity once observed” value (complement activity) was “more than 1 day”. The “time for initial activity to take effect” value (complement activity) was “about 6 hours” and the “prolongation in graft survival” value (rabbit kidney xenografts) was “up to seven days”.

In the case of `CCCCC[C@H](O)/C=C/[C@@H]1[C@H]2C/C(=C/CCCC(=O)O)O[C@H]2C[C@H]1O` [prostacyclin], the “prevention of hyperacute rejection” value (rabbit kidney xenografts) is listed as “not prevented”.

For `C[C@H](CS)C(=O)N1CCC[C@H]1C(=O)O` [captopril], the “prevention of hyperacute rejection” value (rabbit kidney xenografts) is given as “not prevented”.

In the case of `CCOC(=O)[C@H](CCc1ccccc1)N[C@@H](C)C(=O)N1CCC[C@H]1C(=O)O` [enalapril], the “prevention of hyperacute rejection” value (rabbit kidney xenografts) is given as “not prevented”.
